Data reported in patent US20140249135A1, “PIM KINASE INHIBITORS AND METHODS OF THEIR USE” (NOVARTIS AG, priority 2007, published 2014).
Where two headings read alike, the source gives them in different places.

Columns and labels:
Pim1 kinase = Pim1 kinase (Homo sapiens, UniProt P11309); experiment: Pim1 ATP depletion assay; format: biochemical; conditions: Pim1 ATP depletion assay; read-out: IC50 (μM) PIM1;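 note: Luciferase-luciferin luminescence readout of residual ATP after PIM1 transfers phosphate to a peptide substrate, 40 µM ATP added, reaction run to roughly half ATP consumption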
Sequence of Pim1 kinase (P11309 whole entry): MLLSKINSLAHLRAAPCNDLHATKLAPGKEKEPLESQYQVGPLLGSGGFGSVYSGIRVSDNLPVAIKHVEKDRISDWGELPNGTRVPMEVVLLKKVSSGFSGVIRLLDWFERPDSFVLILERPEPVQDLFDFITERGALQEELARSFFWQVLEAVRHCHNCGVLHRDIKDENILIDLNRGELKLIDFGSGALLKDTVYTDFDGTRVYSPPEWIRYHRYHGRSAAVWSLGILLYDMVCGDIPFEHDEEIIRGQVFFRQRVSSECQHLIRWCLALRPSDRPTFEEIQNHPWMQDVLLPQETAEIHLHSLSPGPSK

Pim2 kinase = Pim2 kinase (Homo sapiens, UniProt Q9P1W9); experiment: Pim2 ATP depletion assay; format: biochemical; conditions: read-out: IC50 (μM) PIM2;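 note: Luciferase-based luminescent readout of ATP remaining after PIM2 phosphorylates a BAD peptide, final 5 nM enzyme, 4 µM ATP, 10 µM peptide, 2.5% DMSO, run to roughly half ATP consumption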
Sequence of Pim2 kinase (Q9P1W9 whole entry): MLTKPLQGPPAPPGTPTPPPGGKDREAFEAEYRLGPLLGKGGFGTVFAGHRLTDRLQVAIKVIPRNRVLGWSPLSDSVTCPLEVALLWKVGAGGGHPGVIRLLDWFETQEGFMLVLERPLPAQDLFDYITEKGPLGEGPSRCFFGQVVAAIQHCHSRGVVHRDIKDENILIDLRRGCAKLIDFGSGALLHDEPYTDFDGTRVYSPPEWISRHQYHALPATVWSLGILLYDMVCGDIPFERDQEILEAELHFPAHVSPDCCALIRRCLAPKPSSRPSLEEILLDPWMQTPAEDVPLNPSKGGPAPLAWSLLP

Pim3 kinase = Pim3 kinase (Homo sapiens, UniProt Q86V86); experiment: Pim3 ATP depletion assay; format: biochemical; conditions: read-out: IC50 (μM) PIM3
HEL 92.1.7 cells = experiment: Cell proliferation assay (CellTiter-Glo), HEL 92.1.7; format: cell-based; conditions: Homo sapiens, read-out: EC50 (μM) HEL 92.1.7
Outline: (§1)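 CellTiter-Glo luminescence was read after 3-day compound exposure at 37 °C of cells plated at 1000/well in RPMI1640 with 10% FBS. Signal was normalised between DMSO-treated and control-compound-treated wells. EC50 is the concentration giving 50% of maximal effect.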

[1] = system: KMS 11 (human myeloma cell line); experiment: Cell proliferation assay (CellTiter-Glo), KMS 11; format: cell-based; conditions: KMS11 cells, read-out: EC50 (μM) KMS11
Experimental: (§2) KMS 11 (human myeloma cell line), were cultured in IMDM supplemented with 10% FBS, sodium pyruvate and antibiotics. Cells were plated in the same medium at a density of 2000 cells per well into 96 well tissue culture plates, with outside wells vacant, on the day of assay. MM1.s (human myeloma cell line), were cultured in RPMI1640 supplemented with 10% FBS, sodium pyruvate and antibiotics. Cells were plated in the same medium at a density of 5000 cells per well into 96 well tissue culture plates, with outside wells vacant, on the day of assay.
(§3) Test compounds supplied in DMSO were diluted into DMSO at 500 times the desired final concentrations before dilution into culture media to 2 times final concentrations. Equal volumes of 2× compounds were added to the cells in 96 well plates and incubated at 37° C. for 3 days.
(§4) After 3 days plates were equilibrated to room temperature and equal volume of CellTiter-Glow Reagent (Promega) was added to the culture wells. The plates were agitated briefly and luminescent signal was measured with luminometer. The percent inhibition of the signal seen in cells treated with DMSO alone vs. cells treated with control compound was calculated and used to determine EC50 values (i.e., the concentration of a test compound that is required to obtain 50% of the maximum effect in the cells) for tested compounds, as shown in Example 763.

[2] = system: MM1.s (human myeloma cell line); experiment: Cell proliferation assay (CellTiter-Glo), MM1.s; format: cell-based; conditions: MM1.s cells, read-out: EC50 (μM) MM1.s
Experimental: as §2, §3, §4

PC3 cells = experiment: Cell proliferation assay (CellTiter-Glo), PC3; format: cell-based; conditions: Homo sapiens, PC-3
Outline: as §1

[3] = biological target: T1, human full length PKCE enzyme (Homo sapiens, UniProt Q02156); experiment: In vitro PKCE assay; format: biochemical; conditions: 10 nM enzyme, 40 uM peptide substrate, 20 uM ATP, KinaseGlo Plus readout; read-out: PKCε IC50
T1 construct: human full length PKCE enzyme purchased from InVitrogen; purchased InVitrogen
T1 sequence (Q02156 1-737): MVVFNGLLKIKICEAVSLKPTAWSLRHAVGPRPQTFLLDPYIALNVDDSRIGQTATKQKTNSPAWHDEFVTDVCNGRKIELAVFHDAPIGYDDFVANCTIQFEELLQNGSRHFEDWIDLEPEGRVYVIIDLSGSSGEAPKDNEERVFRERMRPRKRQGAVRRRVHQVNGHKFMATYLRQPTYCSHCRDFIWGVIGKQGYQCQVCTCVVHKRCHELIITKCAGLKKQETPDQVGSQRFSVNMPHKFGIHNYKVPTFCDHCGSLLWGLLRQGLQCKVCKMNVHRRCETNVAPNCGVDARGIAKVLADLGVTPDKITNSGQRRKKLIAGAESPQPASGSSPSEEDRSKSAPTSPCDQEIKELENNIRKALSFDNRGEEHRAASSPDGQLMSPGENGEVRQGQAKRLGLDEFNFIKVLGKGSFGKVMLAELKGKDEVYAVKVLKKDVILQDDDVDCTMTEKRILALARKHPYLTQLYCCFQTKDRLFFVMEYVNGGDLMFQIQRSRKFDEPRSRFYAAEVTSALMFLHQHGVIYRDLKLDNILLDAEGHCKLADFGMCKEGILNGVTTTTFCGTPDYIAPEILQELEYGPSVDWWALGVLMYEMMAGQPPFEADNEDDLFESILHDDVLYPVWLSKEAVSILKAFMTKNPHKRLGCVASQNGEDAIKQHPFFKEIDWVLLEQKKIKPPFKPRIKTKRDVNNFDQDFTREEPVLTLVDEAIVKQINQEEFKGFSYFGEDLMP

KDR kinase = KDR kinase (Homo sapiens, UniProt P35968); experiment: KDR AlphaScreen assay; conditions: KDR IC50 (μM)
Sequence of KDR kinase (P35968 20-1356): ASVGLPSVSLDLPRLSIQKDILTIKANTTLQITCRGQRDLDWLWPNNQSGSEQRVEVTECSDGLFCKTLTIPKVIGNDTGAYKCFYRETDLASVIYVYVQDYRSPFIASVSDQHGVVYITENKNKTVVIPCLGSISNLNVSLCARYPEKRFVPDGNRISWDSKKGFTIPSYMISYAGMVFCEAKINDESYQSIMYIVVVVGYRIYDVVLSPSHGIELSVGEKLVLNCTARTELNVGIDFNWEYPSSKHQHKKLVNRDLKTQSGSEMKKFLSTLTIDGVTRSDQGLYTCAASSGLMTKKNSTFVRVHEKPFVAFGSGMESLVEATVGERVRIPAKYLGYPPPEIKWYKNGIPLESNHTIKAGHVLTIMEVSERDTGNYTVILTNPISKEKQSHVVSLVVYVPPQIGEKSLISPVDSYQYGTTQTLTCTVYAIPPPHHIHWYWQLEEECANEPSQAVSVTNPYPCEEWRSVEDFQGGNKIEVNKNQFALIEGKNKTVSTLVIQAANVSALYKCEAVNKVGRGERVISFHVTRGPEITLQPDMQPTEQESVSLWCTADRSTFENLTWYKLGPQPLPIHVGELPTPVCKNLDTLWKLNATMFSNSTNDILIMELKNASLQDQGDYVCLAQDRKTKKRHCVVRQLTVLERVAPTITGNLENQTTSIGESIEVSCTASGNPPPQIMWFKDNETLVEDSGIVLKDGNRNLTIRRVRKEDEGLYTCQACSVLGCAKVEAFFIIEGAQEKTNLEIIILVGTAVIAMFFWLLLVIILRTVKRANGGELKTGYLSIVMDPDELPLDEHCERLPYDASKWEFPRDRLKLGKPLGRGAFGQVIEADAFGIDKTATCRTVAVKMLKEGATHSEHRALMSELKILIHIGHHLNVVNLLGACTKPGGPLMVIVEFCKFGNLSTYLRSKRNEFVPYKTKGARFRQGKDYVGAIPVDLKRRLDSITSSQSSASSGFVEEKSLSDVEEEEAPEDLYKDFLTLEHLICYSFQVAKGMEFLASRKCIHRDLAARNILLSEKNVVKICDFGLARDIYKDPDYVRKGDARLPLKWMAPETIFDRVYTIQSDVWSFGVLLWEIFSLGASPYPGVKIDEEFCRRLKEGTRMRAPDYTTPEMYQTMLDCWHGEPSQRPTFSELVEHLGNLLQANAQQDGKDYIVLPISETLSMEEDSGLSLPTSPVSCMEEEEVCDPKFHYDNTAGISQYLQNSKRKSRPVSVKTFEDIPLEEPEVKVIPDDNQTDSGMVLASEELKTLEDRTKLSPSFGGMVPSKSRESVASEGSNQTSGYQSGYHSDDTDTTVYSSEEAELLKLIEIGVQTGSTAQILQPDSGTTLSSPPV

Flt3 kinase = biological target: T2, Flt3 kinase (Homo sapiens, UniProt P36888); experiment: Flt3 AlphaScreen assay
T2 sequence (P36888 27-993): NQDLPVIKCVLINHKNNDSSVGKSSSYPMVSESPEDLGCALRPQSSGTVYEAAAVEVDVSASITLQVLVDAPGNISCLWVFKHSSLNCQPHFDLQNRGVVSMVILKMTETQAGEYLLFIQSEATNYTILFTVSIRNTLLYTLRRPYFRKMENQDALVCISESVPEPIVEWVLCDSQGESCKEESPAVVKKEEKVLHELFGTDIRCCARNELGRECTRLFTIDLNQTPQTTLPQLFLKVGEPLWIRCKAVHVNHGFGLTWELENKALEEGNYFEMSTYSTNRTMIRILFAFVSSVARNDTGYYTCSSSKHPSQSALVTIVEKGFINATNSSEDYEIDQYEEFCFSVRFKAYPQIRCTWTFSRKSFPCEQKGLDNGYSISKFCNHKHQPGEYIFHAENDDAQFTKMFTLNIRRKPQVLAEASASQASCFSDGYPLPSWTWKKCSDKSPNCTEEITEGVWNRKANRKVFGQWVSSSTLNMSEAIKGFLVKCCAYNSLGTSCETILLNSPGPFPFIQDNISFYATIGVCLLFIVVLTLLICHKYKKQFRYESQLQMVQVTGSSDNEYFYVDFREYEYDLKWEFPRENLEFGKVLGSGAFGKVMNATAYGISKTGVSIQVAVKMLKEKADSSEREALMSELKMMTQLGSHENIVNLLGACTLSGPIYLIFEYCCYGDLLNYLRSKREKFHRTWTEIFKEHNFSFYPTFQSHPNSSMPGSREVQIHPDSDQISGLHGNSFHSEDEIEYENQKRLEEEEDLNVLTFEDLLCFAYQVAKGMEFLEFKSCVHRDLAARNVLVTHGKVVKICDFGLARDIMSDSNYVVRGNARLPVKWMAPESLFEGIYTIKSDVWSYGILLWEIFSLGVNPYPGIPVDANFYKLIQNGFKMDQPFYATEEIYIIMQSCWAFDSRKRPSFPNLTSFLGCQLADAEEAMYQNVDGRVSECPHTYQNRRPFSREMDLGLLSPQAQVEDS

MV4-11 cells = experiment: Cell proliferation assay (CellTiter-Glo), MV4-11; format: cell-based; conditions: Homo sapiens
Experimental: HEL 92.1.7 cells (ATTC No. TIB-180, an erythroleukemia line derived from malignant peripheral blood), MV4-11 cells (ATCC No. CRL-9591, a human acute monocytic leukemia line) and PC3 cells (ATCC No. CRL-1435, a human prostatic adenocarcinoma line) were cultured in RPMI1640 supplemented with 10% FBS, sodium pyruvate and antibiotics. Cells were plated in the same medium at a density of 1000 cells per well into 96 well tissue culture plates, with outside wells vacant, on the day of assay. Test compounds supplied in DMSO were diluted into DMSO at 500 times the desired final concentrations before dilution into culture media to 2 times final concentrations. Equal volumes of 2× compounds were added to the cells in 96 well plates and incubated at 37° C. for 3 days. After 3 days plates were equilibrated to room temperature and equal volume of CellTiter-Glow Reagent (Promega) was added to the culture wells. The plates were agitated briefly and luminescent signal was measured with luminometer.

[4] = cell proliferation, MV4-11 cells, read-out: EC50 (μM) MV-4-11

| Compound | IC50 (Pim1 kinase) [µM] | IC50 (Pim2 kinase) [µM] | IC50 (Pim3 kinase) [µM] | EC50 (HEL 92.1.7 cells) [µM] | EC50 [1] [µM] | EC50 [2] [µM] | EC50 (PC3 cells) [µM] | IC50 [3] [nM] | IC50 (KDR kinase) [µM] | IC50 (Flt3 kinase) [nM] | EC50 (MV4-11 cells; MV4-11, read-out: EC50 (μM) MV-4-11) [µM] | EC50 (MV4-11 cells; [4]) [µM] |
| --- | --- | --- | --- | --- | --- | --- | --- | --- | --- | --- | --- | --- |
| CN(C)C(=O)c1ccc(F)c(-c2ccc(N)c(C(=O)Nc3cnccc3N3CCC[C@H](N)C3)n2)c1 [Example 328, 3-amino-6-(5-dimethyl-carbamoyl-2-fluoro-phenyl)-pyridine-2-carboxylic acid ((S)-3-amino-3,4,5,6-tetra-hydro-2H-[1,4′]bipyridinyl-3′-yl)-amide] | < 1 | < 1 | < 1 | 1 to 5 | < 1 | < 1 | – | – | – | – | – | – |
| CC(C)NC(=O)c1ccc(F)c(-c2ccc(N)c(C(=O)Nc3cnccc3N3CCC[C@H](N)C3)n2)c1 [Example 317, 3-amino-6-(2-fluoro-5-iso-propylcarbamoyl-phenyl)-pyridine-2-carboxylic acid ((S)-3-amino-3,4,5,6-tetra-hydro-2H-[1,4′]bipyridinyl-3′-yl)-amide] | < 1 | < 1 | < 1 | 1 to 5 | 1 to 5 | < 1 | > 10 | – | – | – | – | – |
| Nc1ccc(-c2c(F)cccc2F)nc1C(=O)Nc1cnccc1N1CCC[C@H](N)C1 [Example 425, 3-amino-6-(2,6-difluoro-phenyl)-pyridine-2-carboxylic acid ((S)-3-amino-3,4,5,6-tetrahydro-2H-[1,4′]bipyridinyl-3′-yl)-amide] | < 1 | < 1 | < 1 | < 1 | < 1 | < 1 | 5 to 10 | 1000 to 10000 | 10 to 25 | – | – | – |
| COCCOc1nc(-c2ccc(N)c(C(=O)Nc3cnccc3N3CCC[C@H](N)C3)n2)cnc1N [Example 520, 3-Amino-6-[5-amino-6-(2-methoxy-ethoxy)-pyrazin-2-yl]-pyridine-2-carboxylic acid (3-amino-3,4,5,6-tetrahydro-2H-[1,4′]bipyridinyl-3′-yl)-amide] | < 1 | < 1 | < 1 | – | 5 to 10 | 5 to 10 | – | – | 1 to 10 | – | – | – |
| CN(C)CCN(C)c1ccncc1NC(=O)c1nc(Br)cnc1N [Example 124, 3-amino-6-bromo-N-(4-{[2-(dimethylamino)ethyl]-(methyl)amino}pyridin-3-yl)pyrazine-2-carboxamide] | 1 to 10 | > 25 | 1 to 10 | – | – | – | – | 10000 to 25000 | – | 10000 to 25000 | – | – |
| Nc1nccnc1C(=O)Nc1cnccc1N1CCCC(N)C1 (stereo not shown) [Example 187, 3-amino-N-[4-(3-aminopiperidin-1-yl)pyridin-3-yl]pyrazine-2-carboxamide] | – | < 1 | < 1 | 1 to 5 | – | – | 1 to 5 | < 1000 | > 25 | – | < 1 | – |
| Nc1ccc(-c2ccccc2Cl)nc1C(=O)Nc1cnccc1N1CCC[C@H](N)C1 [Example 433, 3-amino-6-(2-chloro-phenyl)-pyridine-2-carboxylic acid ((S)-3-amino-3,4,5,6-tetrahydro-2H-[1,4′]bipyridinyl-3′-yl)-amide] | < 1 | < 1 | < 1 | 1 to 5 | – | – | – | 1000 to 10000 | 10 to 25 | – | – | < 1 |
| Nc1ccc(-c2ccccc2F)nc1C(=O)Nc1cnccc1N1CCC[C@H](N)C1 [Example 434, 3-amino-6-(2-fluoro-phenyl)-pyridine-2-carboxylic acid ((S)-3-amino-3,4,5,6-tetrahydro-2H-[1,4′]bipyridinyl-3′-yl)-amide] | – | – | – | 1 to 5 | – | – | – | – | – | – | – | < 1 |
